Source: paper PMC11318591 (ACS Medicinal Chemistry Letters, 2024)
Values after ≈ are worked out from the molar mass of the structure shown. Like-named read-outs stand apart in the source and are kept apart here.

Tests used:
[1] = target: S. aureus DNA gyrase (Staphylococcus aureus, UniProt P20831); experiment: DNA cleavage assay
[2] = system: S. enterica Typhimurium 14028 ΔtolC1::kan; experiment: Minimal inhibitory concentration; type: cell-based, Salmonella enterica serovar Typhimurium; conditions: for MIC: Salmonella enterica, TYPHIMURIUM, read-out: S. enterica Typhimurium 14028 ΔtolC1::kan MIC
[3] = MIC wildtype 14028 vs efflux-deficient ΔtolC1::kan

S. aureus DNA gyrase, sequence (P20831 whole entry): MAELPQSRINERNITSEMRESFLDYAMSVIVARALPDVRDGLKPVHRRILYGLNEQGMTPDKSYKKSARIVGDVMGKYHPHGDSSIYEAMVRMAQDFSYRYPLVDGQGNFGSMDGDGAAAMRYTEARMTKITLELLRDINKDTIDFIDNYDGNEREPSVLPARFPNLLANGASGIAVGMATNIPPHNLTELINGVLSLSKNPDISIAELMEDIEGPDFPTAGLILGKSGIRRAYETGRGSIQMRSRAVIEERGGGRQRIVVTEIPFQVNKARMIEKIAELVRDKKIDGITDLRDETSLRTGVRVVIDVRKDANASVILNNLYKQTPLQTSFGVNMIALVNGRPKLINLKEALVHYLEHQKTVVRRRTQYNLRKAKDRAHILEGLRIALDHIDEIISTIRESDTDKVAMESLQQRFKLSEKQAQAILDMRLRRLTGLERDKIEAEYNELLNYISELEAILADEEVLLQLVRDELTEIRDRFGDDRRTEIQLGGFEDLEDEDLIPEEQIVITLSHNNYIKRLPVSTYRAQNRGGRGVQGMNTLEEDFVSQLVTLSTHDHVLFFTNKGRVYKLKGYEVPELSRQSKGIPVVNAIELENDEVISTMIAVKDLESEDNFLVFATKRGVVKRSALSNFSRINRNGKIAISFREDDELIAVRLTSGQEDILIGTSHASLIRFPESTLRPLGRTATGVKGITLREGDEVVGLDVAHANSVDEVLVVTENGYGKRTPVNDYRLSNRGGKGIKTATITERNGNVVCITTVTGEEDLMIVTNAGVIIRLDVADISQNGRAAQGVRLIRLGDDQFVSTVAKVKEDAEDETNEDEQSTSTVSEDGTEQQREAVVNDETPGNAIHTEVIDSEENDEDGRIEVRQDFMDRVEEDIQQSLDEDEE
S. aureus DNA gyrase, sequence (P0A0K8 whole entry partner): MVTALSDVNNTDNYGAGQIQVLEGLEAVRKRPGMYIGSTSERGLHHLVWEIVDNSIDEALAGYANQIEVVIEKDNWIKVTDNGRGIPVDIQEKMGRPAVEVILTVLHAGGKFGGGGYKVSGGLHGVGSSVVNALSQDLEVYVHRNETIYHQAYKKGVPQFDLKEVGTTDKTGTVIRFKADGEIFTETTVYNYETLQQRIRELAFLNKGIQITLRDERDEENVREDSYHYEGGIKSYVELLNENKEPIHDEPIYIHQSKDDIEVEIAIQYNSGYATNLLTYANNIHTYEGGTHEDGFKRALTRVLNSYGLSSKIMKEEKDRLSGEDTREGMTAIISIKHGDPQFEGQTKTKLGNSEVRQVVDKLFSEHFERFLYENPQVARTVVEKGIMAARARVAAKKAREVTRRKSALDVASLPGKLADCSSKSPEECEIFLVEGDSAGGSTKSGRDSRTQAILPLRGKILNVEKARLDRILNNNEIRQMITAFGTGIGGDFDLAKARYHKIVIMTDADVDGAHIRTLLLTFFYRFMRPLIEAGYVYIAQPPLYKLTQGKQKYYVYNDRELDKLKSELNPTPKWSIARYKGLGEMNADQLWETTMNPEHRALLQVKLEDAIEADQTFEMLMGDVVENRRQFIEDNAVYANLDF

## COc1ccc2ncc(F)c(CCN3CCC(C(N)Cc4ccc(C)cc4)CC3)c2n1 (stereo not drawn) [9a]
[1]
  levels of SSBs: lower levels of SSBs

## COc1ccc2ncc(F)c(CCN3CCC(/C=C/c4ccc(C)cc4)CC3)c2n1 [13a]
[2]
  MIC: 0.5 to 1 µg/mL (≈ 1.23 to 2.47 µM)

## COc1ccc2ncc(F)c(CCN3CCC([C@@H](O)[C@H](O)c4ccc(C)cc4)CC3)c2n1 [16a]
[2]
  MIC: 0.5 to 1 µg/mL (≈ 1.14 to 2.28 µM)

## COc1ccc2ncc(F)c(CCN3CCC([C@@H](O)[C@H](O)c4ccc5c(c4)OCCO5)CC3)c2n1 [16b]
[2]
  MIC: 0.5 µg/mL (≈ 1.03 µM)

## COc1ccc2ncc(F)c(CCN3CCC(/C=C\c4ccc(C)cc4)CC3)c2n1 [21a]
[2]
  Fold Change: ≥8

## COc1ccc2ncc(F)c(CCN3CCC(/C=C\c4ccc5c(c4)OCCO5)CC3)c2n1 [21b]
[2]; [3]
  Fold Change: ≥16

## O=c1ccc2ncc(=O)n3c2n1C[C@H]3CN1CCC(NCc2cc3c(cn2)OCCC3)CC1 [Gep., gepotidacin, reference compound]
[2]; [3]
  Fold Change: 4–16
[2]
  MIC: 0.125 to 0.5 µg/mL (≈ 0.279 to 1.11 µM)

## COc1ccc2ncc(F)c(CCN3CCC(NCc4ccc(C)cc4)CC3)c2n1 [compound 40]
[1]
  levels of SSBs: lower levels of SSBs
